Structures can show the parent of a compound that is named as a salt.
Tested on: skin incision
Experiment: Mini-pig skin incision model, Von Frey test
Type: in vivo
Conditions: subcutaneous into both sides of incision
Procedure: Mini-pig skin incision model was used to test the anesthetic efficacy of some formulations. Mini pig was used in this model due to the similarities of their skin to humans. Mini pigs (9-12 kg) were randomly assigned for test groups. Under isoflurane anesthesia and sterile surgical conditions, a 6 cm long incision was made through skin in the rear left flank. The test drugs were administered subcutaneously into both sides of incision. The wound was then closed by continuous suture. After surgery the mini pig received antibiotic amoxicillin injection for 3 days as wound care. The efficacy of test drugs was evaluated by Von Frey test. At desired time point, an electrical automatic Von Frey was used to apply force about 0.5 cm to the incision. If operator observed the contraction of skin/muscle, or the applied force was over 100 g, the operator stopped the test and record the read of applied force. The response baseline of all mini pigs was tested and the pain threshold was set to the middle of baseline and 100 g. If the response force was higher than pain threshold value then there was anesthesia efficacy, vice versa.

CCCCN1CCCC[C@H]1C(=O)Nc1c(C)cccc1C [levobupivacaine HCl]
duration of anesthesia efficacy: about 4 hours
